ChEMBL document CHEMBL1145651, “A constituent of Pterocarpus marsupium, (-)-epicatechin, as a potential antidiabetic agent” (1983)

Legend:
Type in all cases: functional
Conditions in all cases: route intraperitoneal
Rattus norvegicus [1] = assay: Antihyperglycemic activity in Wistar rat assessed as decrease in alloxan-induced blood glucose level at 30 mg/kg, ip administered 72 to 288 hrs after alloxan challenge
Rattus norvegicus [2] = assay: Antihyperglycemic activity in Wistar rat assessed as decrease in alloxan-induced blood glucose level at 30 mg/kg, ip pretreated 24 hrs before alloxan challenge
Rattus norvegicus [3] = assay: Antihyperglycemic activity in Wistar rat assessed as decrease in alloxan-induced blood glucose level at 30 mg/kg, ip administered 72 hrs after alloxan challenge
Rattus norvegicus [4] = assay: Antihyperglycemic activity in Wistar rat assessed as decrease in alloxan-induced blood glucose level at 30 mg/kg, ip administered 120 hrs after alloxan challenge
Rattus norvegicus [5] = assay: Antihyperglycemic activity in Wistar rat assessed as decrease in alloxan-induced blood glucose level at 30 mg/kg, ip administered 168 hrs after alloxan challenge
Rattus norvegicus [6] = assay: Antihyperglycemic activity in Wistar rat assessed as decrease in alloxan-induced blood glucose level at 30 mg/kg, ip administered 288 hrs after alloxan challenge

In the case of `Oc1cc(O)c2c(c1)O[C@H](c1ccc(O)c(O)c1)[C@H](O)C2` [(-)-EPICATECHIN], the Activity (Rattus norvegicus [1]) is reported as 129 mg/dL, the Activity (Rattus norvegicus [2]) is reported as 111 mg/dL and the Activity (Rattus norvegicus [3]) is reported as 138 mg/dL. For the same compound, the Activity (Rattus norvegicus [4]) was 120 mg/dL, the Activity (Rattus norvegicus [5]) was 128 mg/dL and the Activity (Rattus norvegicus [6]) was 117 mg/dL.
